Active and inactive are the calls of the source.
Columns and labels:
[1] = Luminescence-based dose response cell-based high throughput screening assay for cytotoxic compounds using the IEC-6 intestinal epithelial cell line. [Related pubchem assays: 1858 (Summary AID.), 1825 (Counterscreen.), 1907 (Confirmation screen.)]; type: functional
[2] = target: Sphingosine 1-phosphate receptor 4 (Homo sapiens, UniProt O95977); test: Fluorescence dose response cell-based high throughput screening assay for antagonists of the Sphingosine 1-Phosphate Receptor 4 (S1P4). [Related pubchem assays: 1524 (Confirmation in triplicates.), 1510 (Primary screen.)]; type: functional
Chain of Sphingosine 1-phosphate receptor 4 (O95977 whole entry): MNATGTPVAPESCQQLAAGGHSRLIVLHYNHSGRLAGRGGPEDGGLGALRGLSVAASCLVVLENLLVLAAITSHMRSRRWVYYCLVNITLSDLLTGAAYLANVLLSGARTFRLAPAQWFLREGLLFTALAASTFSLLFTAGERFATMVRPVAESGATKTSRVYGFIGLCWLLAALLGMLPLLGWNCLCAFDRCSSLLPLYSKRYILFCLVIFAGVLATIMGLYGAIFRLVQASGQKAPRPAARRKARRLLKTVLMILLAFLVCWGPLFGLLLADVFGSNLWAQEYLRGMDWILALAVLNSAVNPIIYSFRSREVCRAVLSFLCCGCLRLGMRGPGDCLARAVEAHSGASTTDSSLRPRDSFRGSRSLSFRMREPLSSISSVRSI

Beta Lactamase = Beta Lactamase (Pseudomonas aeruginosa, UniProt Q932Y6); test: beta-lactamase reporter inhibitor potency, dose response, artefact control for TLR9-MyD88 binding inhibitor project, BLA reporter cells, FRET fluorescence (AID 588341); type: cell-based;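 note: cell based assay in CHO-K1 cells stably expressing beta-lactamase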
Chain of Beta Lactamase (Q932Y6 whole entry): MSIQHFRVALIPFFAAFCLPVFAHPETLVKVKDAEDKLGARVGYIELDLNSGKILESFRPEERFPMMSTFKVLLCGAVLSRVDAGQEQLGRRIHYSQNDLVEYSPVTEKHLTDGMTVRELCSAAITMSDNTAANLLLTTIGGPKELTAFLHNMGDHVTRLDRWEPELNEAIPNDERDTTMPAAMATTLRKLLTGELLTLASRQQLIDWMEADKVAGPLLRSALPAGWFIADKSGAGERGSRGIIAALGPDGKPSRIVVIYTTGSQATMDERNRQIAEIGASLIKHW

[3] = target: T1, Mannose-6-phosphate isomerase (Homo sapiens, UniProt P34949); test: human PMI inhibitors, high substrate, primary screen, biochemical, fluorescence intensity, high mannose 6-phosphate (AID 1220)
T1 sequence (P34949 whole entry): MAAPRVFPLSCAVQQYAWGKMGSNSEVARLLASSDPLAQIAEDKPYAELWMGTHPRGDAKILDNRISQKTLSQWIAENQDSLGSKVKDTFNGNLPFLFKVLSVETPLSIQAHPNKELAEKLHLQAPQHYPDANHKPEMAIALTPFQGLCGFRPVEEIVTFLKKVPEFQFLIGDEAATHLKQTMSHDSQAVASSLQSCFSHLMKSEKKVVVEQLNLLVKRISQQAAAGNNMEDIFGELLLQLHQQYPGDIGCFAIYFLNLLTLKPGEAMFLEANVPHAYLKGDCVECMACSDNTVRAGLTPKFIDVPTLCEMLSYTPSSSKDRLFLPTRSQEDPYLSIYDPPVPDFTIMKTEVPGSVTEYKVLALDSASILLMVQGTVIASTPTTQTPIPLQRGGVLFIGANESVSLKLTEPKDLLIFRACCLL

[4] = target: T2, Short transient receptor potential channel 4 (Mus musculus, UniProt Q9QUQ5); test: mouse TRPC4 channel inhibitors, dose response, cell-based, HEK293 TRPC4/mu-opioid, Fluo-4 calcium (AID 434942); type: functional;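 note: potency of inhibitors blocking the TRPC4 calcium response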
T2 sequence (Q9QUQ5 whole entry): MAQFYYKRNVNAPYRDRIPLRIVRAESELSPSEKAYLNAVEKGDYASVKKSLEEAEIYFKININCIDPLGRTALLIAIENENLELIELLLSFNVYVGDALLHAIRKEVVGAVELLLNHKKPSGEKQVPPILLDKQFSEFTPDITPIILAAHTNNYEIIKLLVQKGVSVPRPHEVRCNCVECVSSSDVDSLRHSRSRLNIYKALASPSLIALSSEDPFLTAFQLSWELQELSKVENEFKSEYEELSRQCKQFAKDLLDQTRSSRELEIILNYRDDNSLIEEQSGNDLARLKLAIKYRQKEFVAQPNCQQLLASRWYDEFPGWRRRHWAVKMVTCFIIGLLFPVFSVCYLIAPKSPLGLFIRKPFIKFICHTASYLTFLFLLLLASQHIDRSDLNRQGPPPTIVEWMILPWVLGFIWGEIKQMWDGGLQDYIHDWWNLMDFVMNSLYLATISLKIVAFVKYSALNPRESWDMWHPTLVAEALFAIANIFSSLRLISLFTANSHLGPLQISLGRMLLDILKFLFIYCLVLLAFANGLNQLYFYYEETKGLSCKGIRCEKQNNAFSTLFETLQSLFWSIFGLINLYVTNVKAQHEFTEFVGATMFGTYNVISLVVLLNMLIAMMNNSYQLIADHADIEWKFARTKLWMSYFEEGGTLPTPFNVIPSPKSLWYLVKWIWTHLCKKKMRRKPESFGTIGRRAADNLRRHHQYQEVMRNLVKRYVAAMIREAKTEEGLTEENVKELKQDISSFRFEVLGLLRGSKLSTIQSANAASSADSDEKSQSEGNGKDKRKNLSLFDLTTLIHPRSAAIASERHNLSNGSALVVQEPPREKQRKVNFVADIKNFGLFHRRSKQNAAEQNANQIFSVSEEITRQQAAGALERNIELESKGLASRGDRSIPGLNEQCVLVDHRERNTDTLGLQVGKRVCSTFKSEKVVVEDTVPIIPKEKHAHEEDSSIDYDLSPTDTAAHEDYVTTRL

Protein skinhead-1 = target: T3, Protein skinhead-1 (Caenorhabditis elegans, UniProt P34707); type: functional
T3 sequence (P34707 whole entry): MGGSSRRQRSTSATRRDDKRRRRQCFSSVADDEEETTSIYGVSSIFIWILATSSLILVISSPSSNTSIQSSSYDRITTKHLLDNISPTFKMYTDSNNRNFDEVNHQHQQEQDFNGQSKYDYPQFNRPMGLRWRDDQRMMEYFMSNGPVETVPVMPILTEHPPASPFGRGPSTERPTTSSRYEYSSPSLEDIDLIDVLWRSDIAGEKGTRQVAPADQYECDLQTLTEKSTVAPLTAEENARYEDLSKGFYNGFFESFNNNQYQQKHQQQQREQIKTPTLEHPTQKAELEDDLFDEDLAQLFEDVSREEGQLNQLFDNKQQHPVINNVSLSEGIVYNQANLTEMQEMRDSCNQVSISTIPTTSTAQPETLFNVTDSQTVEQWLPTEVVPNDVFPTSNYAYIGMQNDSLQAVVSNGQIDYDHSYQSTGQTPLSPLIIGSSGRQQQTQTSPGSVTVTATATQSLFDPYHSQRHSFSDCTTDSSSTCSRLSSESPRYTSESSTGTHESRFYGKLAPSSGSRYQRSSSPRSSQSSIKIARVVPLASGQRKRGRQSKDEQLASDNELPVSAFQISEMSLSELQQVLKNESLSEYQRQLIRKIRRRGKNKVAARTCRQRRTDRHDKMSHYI

[5] = target: Serine/threonine-protein phosphatase PP1-alpha catalytic subunit (Homo sapiens, UniProt P62136); test: PP1 phosphatase inhibitors, dose response, biochemical, fluorescence (AID 2394)
Chain of Serine/threonine-protein phosphatase PP1-alpha catalytic subunit (P62136 whole entry): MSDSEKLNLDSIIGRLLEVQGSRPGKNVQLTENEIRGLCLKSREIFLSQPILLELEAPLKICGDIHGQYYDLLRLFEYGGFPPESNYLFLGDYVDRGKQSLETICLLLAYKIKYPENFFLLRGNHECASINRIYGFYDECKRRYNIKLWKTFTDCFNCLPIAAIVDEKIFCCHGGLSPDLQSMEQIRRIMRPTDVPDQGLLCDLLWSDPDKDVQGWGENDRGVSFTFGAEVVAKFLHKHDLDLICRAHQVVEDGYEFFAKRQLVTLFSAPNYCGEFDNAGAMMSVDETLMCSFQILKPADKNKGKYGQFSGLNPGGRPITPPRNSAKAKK

[6] = target: T4, Sentrin-specific protease 8 (Homo sapiens, UniProt Q96LD8); type: functional;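 note: luminescence read-out of SENP8 inhibition, dose-response confirmation following an ultra-high-throughput screen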
T4 sequence (Q96LD8 whole entry): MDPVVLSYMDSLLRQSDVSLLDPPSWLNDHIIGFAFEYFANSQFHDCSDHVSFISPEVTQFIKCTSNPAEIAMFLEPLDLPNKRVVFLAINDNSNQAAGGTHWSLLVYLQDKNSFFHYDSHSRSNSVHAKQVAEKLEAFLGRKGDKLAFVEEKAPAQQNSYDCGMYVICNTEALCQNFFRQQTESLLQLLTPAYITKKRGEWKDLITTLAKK

[7] = target: Ras and Rab interactor 1/Tyrosine-protein kinase ABL1 (Homo sapiens, UniProt P00519+Q13671); type: functional;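 note: biochemical TR-FRET dose-response test measuring inhibition of binding between Rin1 and Abl proteins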
Chain of Ras and Rab interactor 1/Tyrosine-protein kinase ABL1 (P00519 whole entry): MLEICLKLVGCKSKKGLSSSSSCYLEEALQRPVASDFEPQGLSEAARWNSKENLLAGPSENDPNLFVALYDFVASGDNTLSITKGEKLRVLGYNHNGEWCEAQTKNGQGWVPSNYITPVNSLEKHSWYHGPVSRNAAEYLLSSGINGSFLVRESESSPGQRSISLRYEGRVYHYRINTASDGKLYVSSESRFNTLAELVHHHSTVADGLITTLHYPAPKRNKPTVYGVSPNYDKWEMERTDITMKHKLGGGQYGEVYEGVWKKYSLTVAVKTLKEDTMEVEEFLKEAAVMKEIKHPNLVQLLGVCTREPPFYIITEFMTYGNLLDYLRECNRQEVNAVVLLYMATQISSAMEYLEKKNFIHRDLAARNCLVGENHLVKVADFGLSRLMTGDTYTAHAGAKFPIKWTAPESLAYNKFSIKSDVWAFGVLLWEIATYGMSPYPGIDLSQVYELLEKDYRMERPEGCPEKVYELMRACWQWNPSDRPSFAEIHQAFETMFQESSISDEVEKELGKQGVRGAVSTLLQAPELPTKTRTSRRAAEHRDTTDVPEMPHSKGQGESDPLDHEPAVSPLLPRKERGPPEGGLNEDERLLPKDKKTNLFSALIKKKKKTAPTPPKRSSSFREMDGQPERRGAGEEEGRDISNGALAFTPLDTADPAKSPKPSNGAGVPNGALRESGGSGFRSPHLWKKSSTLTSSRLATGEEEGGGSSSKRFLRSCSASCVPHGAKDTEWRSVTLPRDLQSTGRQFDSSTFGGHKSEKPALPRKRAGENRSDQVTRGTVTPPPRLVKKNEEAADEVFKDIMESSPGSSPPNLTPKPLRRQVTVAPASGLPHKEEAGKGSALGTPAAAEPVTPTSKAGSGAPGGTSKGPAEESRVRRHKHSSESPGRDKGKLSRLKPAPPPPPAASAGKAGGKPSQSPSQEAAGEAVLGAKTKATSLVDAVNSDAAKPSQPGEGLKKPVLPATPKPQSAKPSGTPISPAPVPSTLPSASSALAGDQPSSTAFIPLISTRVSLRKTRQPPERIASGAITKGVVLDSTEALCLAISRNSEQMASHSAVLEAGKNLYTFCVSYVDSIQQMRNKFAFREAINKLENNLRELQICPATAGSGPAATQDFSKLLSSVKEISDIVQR
Chain of Ras and Rab interactor 1/Tyrosine-protein kinase ABL1 (Q13671 whole entry): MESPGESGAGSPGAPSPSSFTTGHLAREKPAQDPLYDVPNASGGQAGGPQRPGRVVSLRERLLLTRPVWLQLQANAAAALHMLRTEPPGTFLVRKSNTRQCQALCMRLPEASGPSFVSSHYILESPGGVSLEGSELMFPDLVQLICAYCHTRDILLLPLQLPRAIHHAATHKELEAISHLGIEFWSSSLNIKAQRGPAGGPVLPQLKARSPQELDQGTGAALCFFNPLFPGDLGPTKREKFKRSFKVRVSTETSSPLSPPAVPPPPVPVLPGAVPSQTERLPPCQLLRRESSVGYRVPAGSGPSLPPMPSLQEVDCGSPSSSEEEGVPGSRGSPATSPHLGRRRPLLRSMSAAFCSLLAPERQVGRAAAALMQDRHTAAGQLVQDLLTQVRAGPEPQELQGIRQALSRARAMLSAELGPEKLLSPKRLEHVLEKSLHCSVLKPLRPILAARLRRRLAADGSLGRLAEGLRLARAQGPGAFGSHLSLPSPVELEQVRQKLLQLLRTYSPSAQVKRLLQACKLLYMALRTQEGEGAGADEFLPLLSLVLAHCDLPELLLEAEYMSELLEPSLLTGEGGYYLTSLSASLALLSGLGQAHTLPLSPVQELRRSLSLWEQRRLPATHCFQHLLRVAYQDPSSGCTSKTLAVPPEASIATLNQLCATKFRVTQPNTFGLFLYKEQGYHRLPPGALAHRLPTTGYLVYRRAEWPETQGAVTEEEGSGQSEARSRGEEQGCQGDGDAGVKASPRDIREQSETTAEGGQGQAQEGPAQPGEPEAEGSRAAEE

O=C(Nc1ccccc1Cl)/C(Cl)=C(\Cl)[S+]([O-])c1ccccc1 (centres undefined)
IC50 [1]: 2.52 µM (active) | IC50 [2]: 0.541 µM (active) | IC50 (Beta Lactamase): > 5.53 µM (active)

Cc1cc(C)nc(/N=c2/ssnc2Cl)c1
IC50 [3]: 28.8 µM (active)

Cc1ccc(C)c(S(=O)(=O)/N=C2\C=C(NS(=O)(=O)c3ccccc3)C(=O)c3ccccc32)c1
EC50 [4]: 6.68 µM (active) | IC50 (Protein skinhead-1): > 100 µM (inactive)

O=C(NC1(O)C(=O)c2ccccc2C1=O)c1ccccc1
IC50 [5]: 49 µM (not active) | IC50 [6]: 4.39 µM (active) | IC50 [7]: 25.5 µM (inactive)

From ChEMBL document CHEMBL1201862, “PubChem BioAssay data set” (2004)
